The source of these data is US20230279020A9, “CARM1 INHIBITORS AND USES THEREOF” (Epizyme, Inc., priority 2013, published 2023).

By IC50 is commonly meant the concentration at which inhibition is half-maximal.

Sequence of Human CARM1 (PRMT4) (Q86X55 other isoform, or with tags, fused parts or gaps isoform Q86X55-1): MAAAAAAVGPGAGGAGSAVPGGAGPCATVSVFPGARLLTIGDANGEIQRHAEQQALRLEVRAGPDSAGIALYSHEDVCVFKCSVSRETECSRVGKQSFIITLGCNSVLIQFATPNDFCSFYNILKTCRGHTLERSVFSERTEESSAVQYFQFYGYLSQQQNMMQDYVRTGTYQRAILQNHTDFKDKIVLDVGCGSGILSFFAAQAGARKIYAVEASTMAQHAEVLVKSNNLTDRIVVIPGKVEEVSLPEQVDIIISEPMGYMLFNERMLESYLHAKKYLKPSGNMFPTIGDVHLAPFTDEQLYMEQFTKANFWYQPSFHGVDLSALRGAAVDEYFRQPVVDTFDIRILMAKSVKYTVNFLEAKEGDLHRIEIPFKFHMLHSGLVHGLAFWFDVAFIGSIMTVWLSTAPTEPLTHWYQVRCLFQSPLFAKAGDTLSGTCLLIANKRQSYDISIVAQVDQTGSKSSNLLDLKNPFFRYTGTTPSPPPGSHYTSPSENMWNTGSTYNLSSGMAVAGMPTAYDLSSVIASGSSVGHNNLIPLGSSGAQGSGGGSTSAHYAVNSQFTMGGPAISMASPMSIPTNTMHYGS

The assay concerns the target Human CARM1 (PRMT4) (Homo sapiens (Human), UniProt Q86X55). The experiment in a line: CARM1 enzyme assay on peptide substrate (3H-SAM Flashplate). The note with it: Biochemical potencies, classification codes; read-out: Biochem IC50. The source says: S-adenosylmethionine (SAM), S-adenosylhomocysteine (SAH), bicine, Tween20, dimethylsulfoxide (DMSO), bovine skin gelatin (BSG), sodium butyrate and Tris(2-carboxyethyl)phosphine hydrochloride solution (TCEP) were purchased from Sigma-Aldrich at the highest level of purity possible. ^3H-SAM was purchase from American Radiolabeled Chemicals with a specific activity of 80 Ci/mmol. 384-well streptavidin Flashplates were purchased from PerkinElmer.
Peptide representative of human histone H3 residues 16-30 was synthesized with an N-terminal linker-affinity tag motif and a C-terminal amide cap by 21st Century Biochemicals. […] The sequence was Biot-Ahx-[…]-amide and contained a monomethylated arginine at position 26 (SEQ ID NO.:1).
The gene sequence encoding isoform1 containing a deletion of amino acids 539-561 was amplified subsequently and subcloned into pFastBacMam (Viva Biotech).
Recombinant baculovirus were generated according to Bac-to-Bac kit instructions (Life Technologies). Protein over-expression was accomplished by infecting exponentially growing HEK 293F cell culture at 1.3×10^6cell/ml with virus (MOI=10) in the presence of 8 mM sodium butyrate. Infections were carried out at 37° C. for 48 hours, harvested by centrifugation, and stored at −80° C. for purification.
Expressed full-length human Flag- and His-tagged CARM1 protein was purified from cell paste by anti-flag M2 affinity chromatography with resin equilibrated with buffer containing 20 mM Tris, 150 mM NaCl, 5% glycerol, pH 7.8. Column was washed with 500 mM NaCl in buffer A and Flag-CARM1-His was eluted with 200 ug/ml FLAG peptide in buffer A. Pooled fractions were dialyzed in 20 mM Tris, 150 mM NaCl, 5% glycerol and 1 mM DTT, pH 7.8.
The assays were all performed in a buffer consisting of 20 mM Bicine (pH=7.6), 1 mM TCEP, 0.005% BSG, and 0.002% Tween 20, prepared on the day of use. Compounds in 100% DMSO (1 ul) were spotted into a polypropylene 384-well V-bottom plates (Greiner) using a Platemate Plus outfitted with a 384-channel head (Thermo Scientific). DMSO (1 ul) was added to Columns 11, 12, 23, 24, rows A-H for the maximum signal control and 1 ul of SAH, a known product and inhibitor of CARM1, was added to columns 11, 12, 23, 24, rows I-P for the minimum signal control. A cocktail (40 ul) containing the CARM1 enzyme was added by Multidrop Combi (Thermo-Fisher). The compounds were allowed to incubate with CARM1 for 30 min at room temperature, then a cocktail (10 ul) containing ^3H-SAM and peptide was added to initiate the reaction (final volume=51 ul). The final concentrations of the components were as follows: CARM1 was 0.25 nM, ^3H-SAM was 30 nM, peptide was 250 nM, SAH in the minimum signal control wells was 1 mM, and the DMSO concentration was 2%. The assays were stopped by the addition of non-radiolabeled SAM (10 ul) to a final concentration of 300 uM, which dilutes the ^3H-SAM to a level where its incorporation into the peptide substrate is no longer detectable. 50 ul of the reaction in the 384-well polypropylene plate was then transferred to a 384-well Flashplate and the biotinylated peptides were allowed to bind to the streptavidin surface for at least 1 hour before being washed once with 0.1% Tween20 in a Biotek ELx405 plate washer. The plates were then read in a PerkinElmer TopCount plate reader to measure the quantity of ^3H-labeled peptide bound to the Flashplate surface, measured as disintegrations per minute (dpm) or alternatively, referred to as counts per minute (cpm).
where dpm=disintegrations per minute, cmpd=signal in assay well, and min and max are the respective minimum and maximum signal controls.
where top and bottom are the normally allowed to float, but may be fixed at 100 or 0 respectively in a 3-parameter fit. The Hill Coefficient normally allowed to float but may also be fixed at 1 in a 3-parameter fit. Y is the % inhibition and X is the compound concentration.
Regarding `CNCC(O)COc1cccc(-c2nc(-c3c(C)noc3C)c(C)c(N3CCn4ccnc4C3)n2)c1` (centres unmarked) [Example 34-3], the 50% inhibitory concentration (IC50) was < 100 nM.
Turning to `CNCC(O)COc1cccc(-c2nc(N[C@@H]3CCOC3)c(C)c(N3CCC4(CCNCC4)CC3)n2)c1` (some centres unmarked) [Example 429-1a], the IC50 was < 100 nM.
Turning to `CNCC(O)COc1cccc(-c2nc(-c3scnc3C)cc(N(C)C3CCOCC3)n2)c1` (centres unmarked) [Example 495-1a], the half-maximal inhibitory concentration (IC50) was < 100 nM.
In the case of `CNCC(O)COc1cccc(-c2nc(-c3c(C)noc3C)cc(N3CCN(C(C)=O)C[C@H]3C)n2)c1` (some centres unmarked) [Example 39-1a], the 50% inhibitory concentration (IC50) was < 100 nM.
For the compound `CNCC(O)COc1cccc(-c2nc(N[C@@H]3CCOC3)c(C)c(N3C[C@H]4CNC[C@H]4C3)n2)c1` (some centres unmarked) [Example 440-1a], the concentration for half-maximal inhibition (IC50) was < 100 nM.
`CNC[C@H](O)COc1ccc(Cl)c(-c2nc(N[C@@H]3CCOC3)c(C)c(-c3c(C)noc3C)n2)c1` [Example 94-3]: the IC50 is < 100 nM.
Consider `CNC[C@@H](O)COc1ccc(Cl)c(-c2nc(N[C@H]3CCO[C@H](C)C3)c(Cl)c(-c3c(C)noc3C)n2)c1` [Example 197-3], for which the IC50 was < 100 nM.
For `CCc1onc(C)c1-c1nc(-c2cccc(OCC(O)CNC)c2)nc(NC2CCOCC2)c1C` (centres unmarked) [Example 276-1a], the IC50 was < 100 nM.
With `CNCC(O)COc1cccc(-c2nc(NC3CCN(C(=O)OC)CC3)cc(-c3c(C)noc3C)n2)c1` (centres unmarked) [Example 102-1a], the IC50 is < 100 nM.
On to `CNCC(O)COc1cccc(-c2nc(N[C@@H]3CCOC3)c(C)c(N3CCN(C(C)=O)[C@@H](C)C3)n2)c1` (some centres unmarked) [Example 396-1a], for which the IC50 is < 100 nM.
As for `CNCC(O)COc1cccc(-c2nc(C(=O)NC3CCOCC3)c(C)c(C(=O)NC3CCOCC3)n2)c1` (centres unmarked) [Example 677-1a], the IC50 is > 10000 nM.
In the case of `CCS(=O)(=O)N1CCC(Nc2nc(-c3cc(OC[C@@H](O)CNC)ccc3Cl)nc(-c3c(C)noc3C)c2C)CC1` [Example 67-3] it was < 100 nM.
For the compound `CNCC(O)COc1cccc(-c2nc(NC3CCC3)c(C)c(-c3c(C)noc3C)n2)c1` (centres unmarked) [Example 292-1a], the IC50 is < 100 nM.
In the case of `CCOC(=O)N1CCC(N(C)c2cc(-c3c(C)noc3C)nc(-c3cccc(OCC(O)CNC)c3)n2)CC1` (centres unmarked) [Example 172-1a], the IC50 was < 100 nM.
For the compound `CCOC(=O)N1CCC2(CC1)CN(c1nc(-c3cc(OC[C@H](O)CNC)ccc3F)nc(-c3c(C)noc3C)c1C)C2` [Example 282-3], the IC50 was < 100 nM.
As for `CNC[C@H](O)COc1cccc(-c2nc(NC3CCN(C(=O)OC)C(C)C3)c(C)c(-c3c(C)noc3C)n2)c1` (some centres unmarked) [Example 33-3], the IC50 was < 100 nM.
For the compound `CNCC(O)COc1cccc(-c2nc(NC3CCN(C(=O)OC)CC3)c(Cl)c(-c3c(C)noc3C)n2)c1` (centres unmarked) [Example 202-1a], the IC50 was < 100 nM.
Turning to `CNCC(O)COc1cccc(-c2nc(-c3c(C)noc3C)cc(N3CCN(CCF)CC3)n2)c1` (centres unmarked) [Example 68-1a], the IC50 is < 100 nM.
For the compound `CNCC(O)COc1cccc(-c2nc(-c3c[nH]c4ncncc34)cc(N(C)C3CCOCC3)n2)c1` (centres unmarked) [Example 504-1a], the IC50 is < 100 nM.
With `CC[C@@H]1CN(c2nc(-c3cccc(OCC(O)CNC)c3)nc(-c3c(C)noc3C)c2C)CCN1S(C)(=O)=O` (some centres unmarked) [Example 153-1a], the IC50 was < 100 nM.
Turning to `CNCC(O)COc1cccc(-c2nc(NCC3CCN(C(=O)N(C)C)CC3)c(C)c(-c3c(C)noc3C)n2)c1` (centres unmarked) [Example 248-1a], the concentration for half-maximal inhibition (IC50) is < 100 nM.
Consider `CNC[C@@H](O)COc1cccc(-c2nc(-c3cn(S(C)(=O)=O)c4ncncc34)cc(N(C)C3CCOCC3)n2)c1` [Example 511-1a], for which the IC50 is < 100 nM.
On to `CNCC(O)COc1cccc(-c2nc(N[C@H]3C[C@@](C)(OC)C3)c(C)c(-c3c(C)noc3C)n2)c1` (some centres unmarked) [Example 19-3], for which the IC50 is < 100 nM.
Turning to `CCS(=O)(=O)N1CC2(CN(c3nc(-c4cccc(OCC(O)CNC)c4)nc(-c4c(C)noc4C)c3C)C2)C1` (centres unmarked) [Example 16-3], the half-maximal inhibitory concentration (IC50) was < 100 nM.
With `CNC[C@@H](O)COc1ccc(F)c(-c2nc(-c3c(C)noc3C)c(C)c(N3Cc4cncnc4C3)n2)c1` [Example 260-3], the IC50 is < 100 nM.
`CNC[C@H](O)COc1ccc(Cl)c(-c2nc(NCC3COCCO3)c(C)c(-c3c(C)noc3C)n2)c1` (some centres unmarked) [Example 96-3]: the IC50 is < 100 nM.
In the case of `CNC[C@@H](O)COc1ccc(Cl)c(-c2nc(N[C@H]3COC[C@@H]3O)c(C)c(-c3c(C)noc3C)n2)c1` [Example 209-3] it was < 100 nM; in that of `CNCC(O)COc1ccc(Cl)c(-c2nc(NCC3COCCO3)c(C)c(-c3c(C)noc3C)n2)c1` (centres unmarked) [Example 41-3], < 100 nM.
With `CNC[C@@H](O)COc1ccc(Cl)c(-c2nc(N[C@@H]3CCN(C)C[C@@H]3F)c(C)c(-c3c(C)noc3C)n2)c1` [Example 194-3] the figure was < 100 nM; with `CNCC(O)COc1cccc(-c2nc(N[C@@H]3CCOC3)c(C)c(-c3c(C)noc3C)n2)c1` (some centres unmarked) [Example 66-1a], < 100 nM; with `CNCC(O)COc1cccc(-c2nc(-c3cnc(C)n3C)cc(N(C)C3CCOCC3)n2)c1` (centres unmarked) [Example 517-1a], < 100 nM.
Regarding `CCOC(=O)N1CCOC[C@@H]1CNc1nc(-c2cc(OC[C@H](O)CNC)ccc2F)nc(-c2c(C)noc2C)c1C` [Example 62-3], the IC50 is < 100 nM.
With `CNCC(O)COc1cccc(-c2cc(N(C)C3CCOCC3)nc(-c3ccncc3)n2)c1` (centres unmarked) [Example 2-1], the IC50 was < 100 nM.
In the case of `CNCC(O)COc1cccc(-c2nc(N[C@@H]3CCOC3)c(C)c(N3CCC4(CN(CC(F)F)C4)C3)n2)c1` (some centres unmarked) [Example 475-1a], the IC50 was < 100 nM.
Turning to `CNCC(O)COc1ccc(Cl)c(-c2nc(NCC3CCCCO3)c(C)c(-c3c(C)noc3C)n2)c1` (centres unmarked) [Example 31-3], the IC50 was < 100 nM.
As for `CNCC(O)COc1cccc(-c2nc(N[C@@H]3CCN(C(=O)OC)C[C@H]3F)c(C)c(-c3c(C)noc3C)n2)c1` (some centres unmarked) [Example 228-1a], the IC50 was < 100 nM.
`CNCC(O)COc1cccc(-c2nc(NC3CNC3)c(C)c(-c3c(C)noc3C)n2)c1` (centres unmarked) [Example 1-3]: the IC50 is < 100 nM.
For the compound `CNCC(O)COc1cccc(-c2nc(N(C)C)cc(N(C)C3CCOCC3)n2)c1` (centres unmarked) [Example 15-1], the half-maximal inhibitory concentration (IC50) is < 100 nM.
As to `CNC[C@@H](O)COc1ccc(F)c(-c2nc(NC3CCN(C(=O)OC)CC3)c(C)c(-c3c(C)noc3C)n2)c1` [Example 40-3], the 50% inhibitory concentration (IC50) is < 100 nM.
In the case of `CNC[C@@H](O)COc1ccc(Cl)c(-c2nc(NC3CCOCC3)c(C)c(-c3c(C)noc3C)n2)c1` [Example 127-3], the half-maximal inhibitory concentration (IC50) is < 100 nM.
`CCOC(=O)N1CCC(Nc2nc(-c3cc(OC[C@@H](O)CNC)ccc3Cl)nc(-c3c(C)noc3C)c2C)CC1` [Example 105-3]: the half-inhibitory concentration (IC50) was < 100 nM.
On to `CNC[C@@H](O)COc1ccc(Cl)c(-c2nc(-c3c(C)noc3C)c(C)c(N3CCC4(CC4)C3)n2)c1` [Example 234-3], for which the IC50 is < 100 nM.
On to `CNCC(O)COc1cccc(-c2nc(N[C@H]3CCOC[C@@H]3F)c(C)c(-c3c(C)noc3C)n2)c1` (some centres unmarked) [Example 279-1a], for which the half-inhibitory concentration (IC50) was < 100 nM.
On to `CNC[C@@H](O)COc1ccc(Cl)c(-c2nc(-c3c(C)noc3C)c(C)c(N3Cc4cncnc4C3)n2)c1` [Example 190-3], for which the IC50 was < 100 nM.
`CNCC(O)COc1ccc(Cl)c(-c2nc(NC3CC4(CC4)C3)c(C)c(-c3c(C)noc3C)n2)c1` (centres unmarked) [Example 218-3]: the IC50 is < 100 nM.
Turning to `CNC[C@@H](O)COc1ccc(Cl)c(-c2nc(-c3c(C)noc3C)c(Cl)c(N3Cc4nc(C)sc4C3)n2)c1` [Example 243-3], the IC50 was < 100 nM.
Consider `CCOC(=O)N1CCC(Nc2nc(-c3cc(OC[C@H](O)CNC)ccc3Cl)nc(-c3c(C)noc3C)c2C)CC1` [Example 88-3], for which the IC50 is < 100 nM.
